# Data: patent publication US11413264B2, “Carbamoyl phenylalaninol analogs and uses thereof” (Jazz Pharmaceuticals Ireland Limited, priority 2017, dated 2022)
# Where a name gives a salt, the structure may show the parent alone. Read-outs that look alike come from different tables or passages of the source.
# Columns and labels:
# [1] = molecular target: T1, norepinephrine transporter (NET) (Homo sapiens, UniProt P23975); test: Competitive radioligand binding assay, norepinephrine transporter (antagonist radioligand); details: compound at 10 μM; for binding to the norepinephrine transporter (in words): summary
# T1 construct: expressed in transfected cells; host or cells: CHO cells (membrane fractions)
# Method: (§1) Compounds of the invention were tested for pharmacological activity in comparison to APC. Eight binding assays were carried out to provide a binding profile for each compound, including binding to dopamine transporter (DAT), norepinephrine transporter (NET), serotonin (5-HT) transporter (SERT), alpha2A adrenergic receptor (Alpha2A), alpha2C adrenergic receptor (Alpha2C), D2S dopamine receptor (D2S), D2L dopamine receptor (D2L), and vesicular monoamine transporter (VMAT2). Competitive binding assays using a radiolabeled ligand were carried out with each compound at 10 μM. The radioligand for each target was as follows: DAT—BTCP, NET—nisoxetine, SERT—imipramine, Alpha2A—yohimbine, Alpha2C—yohimbine, D2S—7-OH-DPAT, D2L—methylspiperone, VMAT2—tetrabenazine. The source of the receptors and transporters were prepared cell membrane fractions.
# [2] = molecular target: T2, D2S dopamine receptor (D2S) (Homo sapiens, UniProt P14416); test: Competitive radioligand binding assay, D2S (agonist radioligand); details: compound at 10 μM
# T2 construct: expressed in transfected cells; host or cells: HEK-293 cells (membrane fractions)
# Method: as §1
# [3] = molecular target: T3, dopamine transporter (DAT) (Homo sapiens, UniProt Q01959); test: Competitive radioligand binding assay, dopamine transporter (antagonist radioligand); details: compound at 10 μM; for binding to the dopamine transporter (in words): summary
# T3 construct: expressed in transfected cells; host or cells: CHO cells (membrane fractions)
# Method: as §1
# [4] = molecular target: T4, vesicular monoamine transporter (VMAT2) (Rattus norvegicus, UniProt Q01827); test: Competitive radioligand binding assay, VMAT2 transporter (antagonist radioligand); details: compound at 10 μM
# T4 construct: Rat brain; from tissue; host or cells: rat brain minus cerebellum, membrane fraction
# Method: as §1
# [5] = molecular target: T5, D2L dopamine receptor (D2L) (Homo sapiens, UniProt P14416); test: Competitive radioligand binding assay, D2L (antagonist radioligand); details: compound at 10 μM
# T5 construct: expressed in transfected cells; host or cells: HEK-293 cells (membrane fractions)
# Method: as §1
# [6] = molecular target: T6, alpha2C adrenergic receptor (Alpha2C) (Homo sapiens, UniProt P18825); test: Competitive radioligand binding assay, α2C (antagonist radioligand); details: compound at 10 μM
# T6 construct: expressed in transfected cells; host or cells: CHO cells (membrane fractions)
# T6 sequence (P18825 1-462): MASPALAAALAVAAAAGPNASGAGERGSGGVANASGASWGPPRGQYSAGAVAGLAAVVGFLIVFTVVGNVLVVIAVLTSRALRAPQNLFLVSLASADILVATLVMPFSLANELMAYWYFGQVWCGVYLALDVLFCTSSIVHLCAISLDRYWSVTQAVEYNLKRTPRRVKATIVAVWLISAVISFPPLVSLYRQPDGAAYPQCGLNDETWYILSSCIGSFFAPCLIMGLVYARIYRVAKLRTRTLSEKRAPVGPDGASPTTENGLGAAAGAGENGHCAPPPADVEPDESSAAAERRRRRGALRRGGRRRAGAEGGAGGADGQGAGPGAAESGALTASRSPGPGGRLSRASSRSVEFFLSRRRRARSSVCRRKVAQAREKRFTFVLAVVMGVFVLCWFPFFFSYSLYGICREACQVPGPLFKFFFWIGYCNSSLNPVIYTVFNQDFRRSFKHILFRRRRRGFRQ
# Method: as §1
# [7] = molecular target: T7, serotonin (5-HT) transporter (SERT) (Homo sapiens, UniProt P31645); test: Competitive radioligand binding assay, 5-HT transporter (antagonist radioligand); details: compound at 10 μM
# T7 construct: expressed in transfected cells; host or cells: CHO cells (membrane fractions)
# Method: as §1
# [8] = molecular target: T8, alpha2A adrenergic receptor (Alpha2A) (Homo sapiens, UniProt P08913); test: Competitive radioligand binding assay, α2A (antagonist radioligand); details: compound at 10 μM
# T8 construct: expressed in transfected cells; host or cells: CHO cells (membrane fractions)
# T8 sequence (P08913 1-465): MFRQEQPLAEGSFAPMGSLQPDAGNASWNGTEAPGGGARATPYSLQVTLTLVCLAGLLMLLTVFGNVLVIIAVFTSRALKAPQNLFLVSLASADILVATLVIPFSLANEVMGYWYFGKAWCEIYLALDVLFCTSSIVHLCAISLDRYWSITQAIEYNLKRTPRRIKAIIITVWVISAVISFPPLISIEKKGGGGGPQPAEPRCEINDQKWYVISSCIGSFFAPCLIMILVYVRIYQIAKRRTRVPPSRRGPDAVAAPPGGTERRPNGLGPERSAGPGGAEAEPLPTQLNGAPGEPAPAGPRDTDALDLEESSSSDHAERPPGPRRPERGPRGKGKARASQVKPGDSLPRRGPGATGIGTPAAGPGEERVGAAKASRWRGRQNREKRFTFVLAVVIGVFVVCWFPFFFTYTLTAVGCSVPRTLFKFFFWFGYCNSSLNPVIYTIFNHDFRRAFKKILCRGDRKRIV
# Method: as §1
# [9] = Norepinephrine transporter, 1st individual result, read-out: % inhibition of control specific binding, 1st
# [10] = Norepinephrine transporter, 2nd individual result, read-out: % inhibition of control specific binding, 2nd
# [11] = Norepinephrine transporter, mean, read-out: % inhibition of control specific binding, Mean
# [12] = [3H]nisoxetine 1 nM, human recombinant (CHO cells), read-out: % Inhibition of Binding at Each Transporter or Receptor Target, NET
# [13] = D2S, 1st individual result, read-out: % inhibition of control specific binding, 1st
# [14] = D2S, 2nd individual result, read-out: % inhibition of control specific binding, 2nd
# [15] = D2S, mean, read-out: % inhibition of control specific binding, Mean
# [16] = [3H]7-OH-DPAT 1 nM, human recombinant (HEK-293 cells), read-out: % Inhibition of Binding at Each Transporter or Receptor Target, D2S
# [17] = Dopamine transporter, 1st individual result, read-out: % inhibition of control specific binding, 1st
# [18] = Dopamine transporter, 2nd individual result, read-out: % inhibition of control specific binding, 2nd
# [19] = Dopamine transporter, mean, read-out: % inhibition of control specific binding, Mean
# [20] = [3H]BTCP 4 nM, human recombinant (CHO cells), read-out: % Inhibition of Binding at Each Transporter or Receptor Target, DAT
# [21] = VMAT2 transporter, single value, read-out: % inhibition of control specific binding, 1st
# [22] = [3H]dihydrotetrabenazine 10 nM, rat brain (minus cerebellum), read-out: % Inhibition of Binding at Each Transporter or Receptor Target, VMAT2
# [23] = D2L, 1st individual result, read-out: % inhibition of control specific binding, 1st
# [24] = D2L, 2nd individual result, read-out: % inhibition of control specific binding, 2nd
# [25] = D2L, mean, read-out: % inhibition of control specific binding, Mean
# [26] = [3H]methyl-spiperone 0.3 nM, human recombinant (HEK-293 cells), read-out: % Inhibition of Binding at Each Transporter or Receptor Target, D2L
# [27] = 1st individual result, read-out: % inhibition of control specific binding, 1st
# [28] = 2nd individual result, read-out: % inhibition of control specific binding, 2nd
# [29] = mean, read-out: % inhibition of control specific binding, Mean
# [30] = 5-HT transporter, 1st individual result, read-out: % inhibition of control specific binding, 1st
# [31] = 5-HT transporter, 2nd individual result, read-out: % inhibition of control specific binding, 2nd
# [32] = 5-HT transporter, mean, read-out: % inhibition of control specific binding, Mean
# [33] = [3H]imipramine 2 nM, human recombinant (CHO cells), read-out: % Inhibition of Binding at Each Transporter or Receptor Target, SERT
# T3 sequence (Q01959 whole entry): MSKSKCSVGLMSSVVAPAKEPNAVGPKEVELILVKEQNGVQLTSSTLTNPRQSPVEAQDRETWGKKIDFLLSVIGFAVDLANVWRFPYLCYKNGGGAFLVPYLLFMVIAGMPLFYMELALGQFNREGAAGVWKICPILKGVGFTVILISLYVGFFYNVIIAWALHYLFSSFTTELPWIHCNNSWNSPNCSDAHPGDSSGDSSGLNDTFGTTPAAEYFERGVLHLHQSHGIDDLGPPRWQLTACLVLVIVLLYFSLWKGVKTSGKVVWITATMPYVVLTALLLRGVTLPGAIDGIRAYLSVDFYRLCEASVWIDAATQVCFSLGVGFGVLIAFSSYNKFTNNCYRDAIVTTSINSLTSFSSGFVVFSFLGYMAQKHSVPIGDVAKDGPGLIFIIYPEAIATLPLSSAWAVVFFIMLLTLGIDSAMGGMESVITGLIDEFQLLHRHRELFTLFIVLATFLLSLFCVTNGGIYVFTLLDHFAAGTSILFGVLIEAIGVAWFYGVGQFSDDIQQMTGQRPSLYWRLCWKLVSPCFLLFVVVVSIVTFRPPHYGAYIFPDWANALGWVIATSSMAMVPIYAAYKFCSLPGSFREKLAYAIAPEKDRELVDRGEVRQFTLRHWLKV
# T7 sequence (P31645 whole entry): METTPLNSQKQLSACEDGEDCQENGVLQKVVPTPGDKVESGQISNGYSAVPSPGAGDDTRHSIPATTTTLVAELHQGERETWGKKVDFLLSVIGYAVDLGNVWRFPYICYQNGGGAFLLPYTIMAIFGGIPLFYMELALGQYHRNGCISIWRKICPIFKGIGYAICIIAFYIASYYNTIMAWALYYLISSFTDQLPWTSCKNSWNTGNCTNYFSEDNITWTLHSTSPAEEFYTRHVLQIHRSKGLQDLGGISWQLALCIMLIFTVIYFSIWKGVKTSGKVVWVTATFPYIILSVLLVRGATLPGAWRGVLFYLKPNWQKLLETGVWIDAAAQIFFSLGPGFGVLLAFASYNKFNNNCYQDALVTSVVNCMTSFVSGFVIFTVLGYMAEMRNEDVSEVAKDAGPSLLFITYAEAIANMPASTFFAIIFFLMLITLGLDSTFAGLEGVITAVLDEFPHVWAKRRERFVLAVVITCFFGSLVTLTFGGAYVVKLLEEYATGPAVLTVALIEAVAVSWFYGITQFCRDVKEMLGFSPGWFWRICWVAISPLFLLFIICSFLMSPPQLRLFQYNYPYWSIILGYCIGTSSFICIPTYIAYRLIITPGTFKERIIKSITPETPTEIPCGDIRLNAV
# T4 sequence (Q01827 whole entry): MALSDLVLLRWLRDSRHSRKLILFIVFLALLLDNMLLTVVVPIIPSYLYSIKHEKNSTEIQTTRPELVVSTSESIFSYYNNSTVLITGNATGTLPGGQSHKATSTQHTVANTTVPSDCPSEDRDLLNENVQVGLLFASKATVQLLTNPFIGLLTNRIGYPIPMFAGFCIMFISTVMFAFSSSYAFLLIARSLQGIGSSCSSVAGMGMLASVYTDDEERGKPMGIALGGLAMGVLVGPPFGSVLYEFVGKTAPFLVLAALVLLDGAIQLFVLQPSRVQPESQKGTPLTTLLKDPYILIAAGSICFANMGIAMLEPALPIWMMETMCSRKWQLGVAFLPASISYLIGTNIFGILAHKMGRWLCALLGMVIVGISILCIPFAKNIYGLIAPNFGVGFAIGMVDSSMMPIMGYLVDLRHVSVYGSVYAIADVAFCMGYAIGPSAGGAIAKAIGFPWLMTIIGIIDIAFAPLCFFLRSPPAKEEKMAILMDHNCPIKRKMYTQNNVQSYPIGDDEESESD
# T1 sequence (P23975 whole entry): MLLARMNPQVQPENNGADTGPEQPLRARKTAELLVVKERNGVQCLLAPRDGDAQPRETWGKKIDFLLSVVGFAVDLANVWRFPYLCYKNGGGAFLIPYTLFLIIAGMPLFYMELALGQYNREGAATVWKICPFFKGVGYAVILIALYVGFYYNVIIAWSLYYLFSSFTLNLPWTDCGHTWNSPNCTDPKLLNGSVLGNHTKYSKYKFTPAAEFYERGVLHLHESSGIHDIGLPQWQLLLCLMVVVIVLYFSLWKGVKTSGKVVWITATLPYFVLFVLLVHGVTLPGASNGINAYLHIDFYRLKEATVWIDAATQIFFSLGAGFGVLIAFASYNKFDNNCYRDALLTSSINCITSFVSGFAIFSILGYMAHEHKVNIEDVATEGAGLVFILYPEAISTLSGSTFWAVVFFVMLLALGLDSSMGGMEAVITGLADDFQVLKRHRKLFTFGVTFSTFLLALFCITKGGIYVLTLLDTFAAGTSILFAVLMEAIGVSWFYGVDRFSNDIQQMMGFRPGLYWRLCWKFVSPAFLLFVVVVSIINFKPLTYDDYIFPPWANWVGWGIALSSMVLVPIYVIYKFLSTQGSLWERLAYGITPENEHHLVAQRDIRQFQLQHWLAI
# T2 sequence (P14416 1-414 isoform P14416-2): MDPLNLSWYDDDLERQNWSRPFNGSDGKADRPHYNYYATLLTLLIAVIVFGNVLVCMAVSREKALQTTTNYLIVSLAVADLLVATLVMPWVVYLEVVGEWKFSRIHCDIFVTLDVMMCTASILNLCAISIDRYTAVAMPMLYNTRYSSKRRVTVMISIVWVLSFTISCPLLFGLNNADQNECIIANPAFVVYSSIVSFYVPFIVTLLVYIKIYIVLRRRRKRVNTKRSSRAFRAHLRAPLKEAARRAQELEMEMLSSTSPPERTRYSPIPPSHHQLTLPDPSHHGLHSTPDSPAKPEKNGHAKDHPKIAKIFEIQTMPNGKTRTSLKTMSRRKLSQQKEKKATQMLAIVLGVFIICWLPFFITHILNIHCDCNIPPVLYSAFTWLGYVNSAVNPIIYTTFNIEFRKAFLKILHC
# T5 sequence (P14416 whole entry): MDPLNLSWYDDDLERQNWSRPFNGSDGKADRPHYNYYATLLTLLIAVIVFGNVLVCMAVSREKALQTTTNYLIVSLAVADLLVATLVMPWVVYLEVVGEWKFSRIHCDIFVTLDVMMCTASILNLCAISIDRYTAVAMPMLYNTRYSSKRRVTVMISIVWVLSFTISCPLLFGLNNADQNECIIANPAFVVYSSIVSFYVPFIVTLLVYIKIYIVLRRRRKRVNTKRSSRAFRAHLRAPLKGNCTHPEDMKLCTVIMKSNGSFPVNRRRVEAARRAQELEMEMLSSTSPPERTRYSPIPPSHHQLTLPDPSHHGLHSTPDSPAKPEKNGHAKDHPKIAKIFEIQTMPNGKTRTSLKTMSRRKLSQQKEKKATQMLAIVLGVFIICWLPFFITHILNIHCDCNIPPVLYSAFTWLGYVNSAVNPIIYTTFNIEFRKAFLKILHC
SMILES,"inhibition at 10 µM [1, 9] [%]","inhibition at 10 µM [1, 10] [%]","inhibition at 10 µM [1, 11] [%]","inhibition at 10 µM [1, 12] [%]","inhibition at 10 µM [2, 13] [%]","inhibition at 10 µM [2, 14] [%]","inhibition at 10 µM [2, 15] [%]","inhibition at 10 µM [2, 16] [%]","inhibition at 10 µM [3, 17] [%]","inhibition at 10 µM [3, 18] [%]","inhibition at 10 µM [3, 19] [%]","inhibition at 10 µM [3, 20] [%]",binding to the dopamine transporter (in words) [3],"inhibition at 10 µM [4, 21] [%]","inhibition at 10 µM [4, 22] [%]","inhibition at 10 µM [5, 23] [%]","inhibition at 10 µM [5, 24] [%]","inhibition at 10 µM [5, 25] [%]","inhibition at 10 µM [5, 26] [%]","inhibition at 10 µM [6, 27] [%]",further results
"NC(=O)OC[C@H](N)Cc1ccccc1 [APC, (R)-2-amino-3-phenylpropyl carbamate, reference compound]",6.9,16,11.4,11.4,0.7,8.2,4.4,4.4,79.3,81.1,80.2,80.2,substantial binding,7,7,-0.1,4.6,2.3,2.3,4.1,"inhibition at 10 µM [6, 28]: 2.3%; inhibition at 10 µM [6, 29]: 3.2%; inhibition at 10 µM [7, 30]: -6.3%; inhibition at 10 µM [7, 31]: -3.3%; inhibition at 10 µM [7, 32]: -4.8%; inhibition at 10 µM [7, 33]: -4.8%; inhibition at 10 µM [8, 27]: 5.2%; inhibition at 10 µM [8, 28]: 8.7%; inhibition at 10 µM [8, 29]: 7%"
"NC(=O)NC[C@H](N)Cc1ccccc1 [Compound 3, (R)-1-(2-Amino-3-phenylpropyl)urea hydrochloride]",42.6,23,32.8,32.8,-1.6,0.2,-0.7,-0.7,86.8,90.5,88.6,88.6,substantial binding,0,0,-6.7,7.6,0.5,0.5,8.6,"inhibition at 10 µM [6, 28]: 22.6%; inhibition at 10 µM [6, 29]: 15.6%; inhibition at 10 µM [7, 30]: -2.4%; inhibition at 10 µM [7, 31]: -0.4%; inhibition at 10 µM [7, 32]: -1.4%; inhibition at 10 µM [7, 33]: -1.4%; inhibition at 10 µM [8, 27]: 1.7%; inhibition at 10 µM [8, 28]: 7.8%; inhibition at 10 µM [8, 29]: 4.8%"
"NC(=O)CC[C@H](N)Cc1ccccc1 [Compound 4, (S)-4-Amino-5-phenylpentanamide hydrochloride]",7,-21.9,-7.5,-7.5,-8.2,-3.7,-6,-6,52.9,60,56.5,56.5,substantial binding,0,0,1.4,0.8,1.1,1.1,3.4,"inhibition at 10 µM [6, 28]: 2.3%; inhibition at 10 µM [6, 29]: 2.9%; inhibition at 10 µM [7, 30]: -2.9%; inhibition at 10 µM [7, 31]: 1.8%; inhibition at 10 µM [7, 32]: -0.5%; inhibition at 10 µM [7, 33]: -0.5%; inhibition at 10 µM [8, 27]: 7.8%; inhibition at 10 µM [8, 28]: -9.3%; inhibition at 10 µM [8, 29]: -0.8%"
"NC(=S)OC[C@H](N)Cc1ccccc1 [Compound 8, (R)—O-(2-Amino-3-phenylpropyl) carbamothioate dihydrochloride]",29.5,46.1,37.8,37.8,33.5,21.4,27.4,27.4,67.9,95.4,81.6,81.6,substantial,6,6,-0.5,2.7,1.1,1.1,50.6,"binding to the norepinephrine transporter (in words) [1]: substantial binding; inhibition at 10 µM [6, 28]: 47%; inhibition at 10 µM [6, 29]: 48.8%; inhibition at 10 µM [7, 30]: -1.9%; inhibition at 10 µM [7, 31]: -2.4%; inhibition at 10 µM [7, 32]: -2.1%; inhibition at 10 µM [7, 33]: -2.1%; inhibition at 10 µM [8, 27]: 60%; inhibition at 10 µM [8, 28]: 61.3%; inhibition at 10 µM [8, 29]: 60.6%"
"N[C@@H](COS(N)(=O)=O)Cc1ccccc1 [Compound 9, (R)-2-Amino-3-phenylpropyl sulfamate hydrochloride]",-3.7,14,5.1,5.1,45.3,33.7,39.5,39.5,26.4,44,35.2,35.2,substantial,16,16,-2.2,-6.8,-4.5,-4.5,65.8,"binding to the norepinephrine transporter (in words) [1]: substantial binding; inhibition at 10 µM [6, 28]: 60.9%; inhibition at 10 µM [6, 29]: 63.4%; inhibition at 10 µM [7, 30]: -1.7%; inhibition at 10 µM [7, 31]: -3.7%; inhibition at 10 µM [7, 32]: -2.7%; inhibition at 10 µM [7, 33]: -2.7%; inhibition at 10 µM [8, 27]: 65.7%; inhibition at 10 µM [8, 28]: 70.8%; inhibition at 10 µM [8, 29]: 68.3%"
